Test results published in patent US9671340B2, “Measurement method for determining an organ function” (SMARTDYELIVERY GMBH, priority 2010, dated 2017).
Where two headings read alike, the source gives them in different places.

Experiments:
[1] = at clinically conventional dose; cited from earlier work
[2] = cited from earlier work
[3] = rat, in vivo
Procedure: (§1) Male WISTAR rats (12-16 weeks old, body mass 400±50 g; Harlan Laboratories, Horst, Netherlands) were used in this study. All tests were carried out in accordance with the German laws for the protection of animals and with the approval of the regional animal protection commission in Bad Langensalza, Thuringia, Germany. The body temperature was kept constant at 37° during the surgical preparation and the experimental tests, in each case using a warming plate and a heatable specimen stage of the microscope. All preparations were carried out under aseptic conditions.
A special model of polymicrobial sepsis with some modifications was used, which was originally described by Bauhofer (Bauhofer et al., 2004, 2006; Lorenz et al., 2004). With this model the sepsis is induced by peritoneal contamination and infection (PCI).
A standardised human stool inoculum was used for the PCI. Immediately after collection, the stool sample was diluted 1:1 with pre-reduced thioglycolate-bouillion, containing 10% sterile barium sulphate and 10% glycerol, and was then homogenised under anaerobic conditions. Lastly, the stool samples were stored at −80° C. until use. Before the inoculation, the stool samples were diluted 1:4 in 0.9% NaCl. The inoculum was analysed microbiologically in order to establish the number of strains after storage. The rats were instrumented 24 h before the PCI and anaesthetised using Desflurane (Baxter, Munich, Germany) via a facemask. A jugular vein catheter (polyethylene, autoclave-sterilised, OD:1.0 mm, Portex, UK) was used for the fluid replacement and was tunneled subcutaneously as far as the approach to the nape of the neck. The catheter was mounted on a hinge-jointed retaining system, which enabled unrestricted movement in the cage after recovery from the anaesthetic.
In introductory studies, the dose of the inoculum was adapted such that a 100% mortality rate was achieved within 40 h. The animals were assigned randomly to the control group (sham) or the PCI group. With short ether anaesthesia, the inoculum was injected intraperitoneally into the pelvis region using a 21 G cannula. The animals in the control group (sham) received 0.9% NaCl in the same amount. After the procedure, both groups received fluid replacement (10 ml/kg/KG/h, Jonosteril®, Fresenius Kabi GmbH, Germany) as well as food and water ad libitum.
The plasma disappearance rate (PDR) and the bile excretion of the dyes DY635 (Dyomics, Jena, Germany) and indocyanine green as a comparative experiment (ICG; Pulsion, Munich, Germany) were determined in vivo.
The animals were anaesthetised 15 h after sepsis or induction of the control group.
An arterial catheter was used for haemodynamic monitoring. A midline and right subcostal laparotomy was performed and the ductus choledochus was provided with a polyethylene catheter (polyethylene, autoclave-sterilised, OD:1.0 mm, Portex, UK) for the collection of bile via a cannula. The wound was then closed using Mersilene 2-0 (Ethicon, Hamburg, Germany) and the anaesthetisation was maintained.
The dye was administered via a jugular vein catheter. The blood samples and bile samples were taken from the zero point and then every 15 min for a period of 60 min. Blood losses caused by these blood samples were adequately counter balanced by infusions. The haemodynamic monitoring was carried out continuously.

[4] = Water solubility of the dye; format: physicochemical
[5] = In vivo determination of kidney function, imaging of dye excretion via the kidneys; parameters: species or system WISTAR rats
Procedure: as §1
Further experiments were carried out to ascertain kidney function using DY652 (data not shown here) and DY647.
The kidney tissue and the widely ramified kidney vascular system can be seen in the recorded images.
FIG. 7: in vivo imaging of the excretion of DY647 via the kidneys.

cultivated hepatocytes = assay: Cytotoxicity, survival of cultivated hepatocytes 24 h after addition of dye (MTT assay); format: cell-based
Procedure: FIG. 6: comparison of the cytotoxicity between ICG and DY635. In each case the survival of cultivated hepatocytes 24 h after addition of different concentration of the dyes is shown (MTT assay).

[6] = In vivo determination of hepatocellular and canalicular transport by intravital epifluorescence microscopy of the liver; parameters: species or system WISTAR rats; settings: periportal and perivenous areas, up to 35 min after application
Procedure: Changes to the hepatocellular uptake and the canalicular elimination were measured 15 h after sepsis or induction of the control group by in vivo imaging of the exclusively hepatocytically eliminated dye indocyanine green (Pulsion, Munich, Germany) and of DY635 using an inverted epiflourescence microscope (AxioObserver® Z1; Zeiss, Jena, Germany), equipped with a computer-controlled, highly-precise scanning platform (Marzhäuser, Wetzlar, Germany).
775 nm to 805 nm excitation and 845 nm to 855 nm emission bandpass filters were used to image the dye indocyanine green. […]
In order to locate 16 regions (regions of interest: ROI) for the in vivo imagings of the dye, the liver surface was rasterised; 8 pericentral and 8 periportal regions were established and the exact position thereof was determined on the computer-controlled scanning stage using AxioVision® software and stored so that the predefined ROI were accessible during future experiments. […]
Before the indocyanine green or DY635 was added, base line images of the defined ROI were recorded using the AxioVision® multi-channel module (×40/0.6 lens, 365 nm to 395 nm excitation and 445 nm to 450 nm emission bandpass filter and 775 nm to 805 nm excitation and 845 nm to 855 nm emission bandpass filter). […]

CC1(C)C(/C=C/C=C/C=C/C=C2\N(CCCCS(=O)(=O)O)c3ccc4ccccc4c3C2(C)C)=[N+](CCCCS(=O)(=O)[O-])c2ccc3ccccc3c21 [ICG, indocyanine green]
toxicity [1]: negligible toxicity
metabolism and extrahepatic elimination ([2]; current state of knowledge): neither metabolised nor eliminated extrahepatically
time until the dye appears unconjugated in the bile ([2]; following intravenous injection (0.1-0.5 mg/kg KG)): approximately 8 min
binding to plasma proteins ([2]; following intravenous injection, within a short period of time): fully bonded to plasma proteins
dye concentration in the bile after 60 minutes [3]: high ICG values could still be measured
plasma concentration of the dye immediately after application, septic vs control animals [3]: Less ICG can be traced in the plasma of the septic animals

CCN1/C(=C/C=C/C=C/C2=[N+](CC)c3ccc(S(=O)(=O)O)cc3C2(C)C)C(C)(CCCC(=O)O)c2cc(S(=O)(=O)O)ccc21 (stereo not drawn) [DY647, 2-{(1E,3E)-5-(3-(3-carboxy-propyl)-1-ethyl-3-methyl-5-sulfo-1,3-dihydro-indol-(2E)-ylidene]-penta-1,3-dienyl)-1-ethyl-3,3-dimethyl-5-sulfo-3H-indolium]
solubility in water [4]: water-soluble
location of the dye in the kidneys ([5]; 5 minutes after application): can be seen in the vascular system of the kidneys
location of the dye in the kidneys ([5]; after 90 minutes): has left the vascular system and can be seen in the kidney tubules
detection of the dye in urine after application ([5]; after application): detected in urine
route of excretion ([5]; in vivo measurements of the kidneys): excreted selectively via the kidneys

CC(C)(C)c1cc(/C=C/C=C2/N(CCCCCC(=O)O)c3ccc(S(=O)(=O)O)cc3C2(C)C)c2cc3c4c(c2[o+]1)CCCN4CCC3 [DY635]
cytotoxicity in comparison with ICG (cultivated hepatocytes): very low cytotoxicity
plasma concentration of the dye immediately after application, septic vs control animals ([3]; male, Wistar): Less DY635 in the plasma was traceable in the healthy animals than in the sick animals
time to complete uptake of the dye into the hepatocytes ([3]; male, Wistar): ≤ 15 min
accumulation of the dye in healthy animals, compared with ICG [3]: accumulates much less considerably in healthy animals than ICG
detection of the dye in the kidneys or in the urine [3]: could not be detected
speed of canalicular excretion into the bile fluid, compared with ICG [3]: excreted more quickly
decrease of specific fluorescence intensity (dye concentration) in the organ tissue, compared with ICG [6]: decreases much more sharply
